Earlier results as cited in paper PMC7993274 (Clinical and Translational Science, 2020).

Experiments:
[1] = levels peaking 2 weeks post‐treatment; cited from earlier work
[2] = patients with rheumatoid arthritis (N = 3,492); cited from earlier work

CCS(=O)(=O)N1CC(CC#N)(n2cc(-c3ncnc4[nH]ccc34)cn2)C1 [baricitinib]
effect on platelet counts [1]: transiently increase platelet counts | venous thromboembolism incidence rate [2]: 0.5 per 100 patient‐years
